# Test results: patent US20230212193A1, “CRYSTALLINE RET INHIBITOR” (Loxo Oncology, Inc., priority 2020, published 2023)
# Key:
# Type in all cases: physicochemical
# [1] = hygroscopicity comparison of polymorphs; conditions: anhydrous polymorphs compared
# [2] = solubility in organic solvents
# [3] = accelerated stability study of Form B (open dish, temperature/humidity; XRPD and HPLC); design: key to Crystal Form (XRPD vs unstressed time 0 sample): NC: No Change
# Source text: Physical and chemical stability of Form B is an important attribute not only with respect to ensuring dissolution and solubility, but also for API and dosage form drug development and manufacturing operations (drying, storage, shipping transfers, etc.). Not all crystalline forms have the needed stability to enable drug development. A crystal form that is stable with respect to both temperature and humidity is desired. In order to assess the stability of the crystal form of selpercatinib an accelerated stability study iss carried out. Samples of Form B are weighed into 20 mL scintillation vials and placed (open dish) into bell jars with saturated salt solutions in ovens at the specified temperatures and for the specified times in Table 4. The Form B is analyzed before and after the accelerated stability study and is collected on a Bruker D8 Advance XRPD, equipped with a CuKα source (wavelength = 1.54056 Å) and a Linxeye detector, and operating at 40 kV and 40 mA, with a 0.2 mm divergence slit. Each sample is scanned from 4° to 30° 2θ in 0.02° steps at a rate of 0.2 seconds per step. Assay and impurities relative to the starting material are assessed using an Agilent 1260 HPLC System with Diode Array Detector. Samples are prepared at appropriate concentrations in 50/50 0.1%TFA in water/0.1%TFA in ACN and evaluated using the following HPLC conditions: Column Zorbax Bonus-RP, 75 × 4.6 mm i.d., 3.5 micron, mobile phase A is 0.1% TFA in water, mobile phase B is 0.1% TFA in ACN, gradient is 95% A at time 0, 23% A at time 9.5-12.1 minutes, 5% A at time 13-16 minutes, 95% A at time 16.1-20 minutes with a flow rate of 1.5 mL/min, a column temperature of 30° C., UV detection wavelength of 210 nm, and injection volume of 3 µL.
# [4] = equilibrium solubility in aqueous media and simulated fluids
# Method: Solubility studies were completed on the crystal form of selpercatinib described herein. Aqueous media covering the physiological pH range and three simulated fluids were used in these studies. A sufficient quantity of solid compound to saturate the volume of solvent is weighed into a vessel with approximately 1 mL of the specified solvent. […] After equilibration, samples are transferred to centrifuge filters (Durapore PVDF, 0.22 µm pore size) and centrifuged for 3 min at 10,000 rpm, while maintaining 37° C. A 100 µL aliquot is then withdrawn from each sample and diluted with 900 µL of 50:50 acetonitrile:water. The pH of the filtrate is recorded using calibrated scientific pH equipment. The solution concentration of the compound is determined by HPLC using an Agilent Zorbax Bonus-RP 4.6 × 75 mm, 3.5 µm column under the following conditions:; temperature is 30° C.; injection volume is 4 µL; ultraviolet detection at 238 nm; flow rate is 1.5 mL/min; autosampler temperature is 25° C.; mobile phase A is 0.1% trifluoroacetic acid in water; and mobile phase B is 0.1% trifluoroacetic acid in acetonitrile. The HPLC gradient is as follows: 0 min -95% A, 5% B; 9.5 min - 23% A, 77% B; 12.1 min - 23% A, 77% B; 13 min - 5% A, 95% B; 16 min - 5% A, 95% B; 16.1 min - 95% A, 5% B; 20 min - 95% A, 5% B. The table below (Table 3) details the equilibrium solubility data and equilibrium pH, reported as a mean of duplicate sample preparations. The solid form of the residual solid from the centrifuge sample is verified by XRPD, as noted in Table 5.
compound,measurement,setting,value
"COc1ccc(CN2C3CC2CN(c2ccc(-c4cc(OCC(C)(C)O)cn5ncc(C#N)c45)cn2)C3)cn1 [Form A, 6-(2-hydroxy-2-methylpropoxy)-4-(6-(6-((6-methoxypyridin-3-yl)methyl)-3,6-diazabicyclo[3.1.1]heptan-3-yl)pyridin-3-yl)pyrazolo[1,5-a]pyridine-3-carbonitrile]",hygroscopicity,[1],slightly more hygroscopic than Form B
same,"solubility in many organic solvents, including MEK, acetone, and many alcohol based solvents",[2]; 25° C.,poor
same,solubility,"[2]; dichloromethane, dimethylsulfoxide and THF, organic solvent or mixture, 25° C., called moderate solubility, read-out: solubility in dichloromethane (DCM), dimethylsulfoxide (DMSO) and THF",3000 to 30000 µg/mL
"COc1ccc(CN2C3CC2CN(c2ccc(-c4cc(OCC(C)(C)O)cn5ncc(C#N)c45)cn2)C3)cn1 [Form B, 6-(2-hydroxy-2-methylpropoxy)-4-(6-(6-((6-methoxypyridin-3-yl)methyl)-3,6-diazabicyclo[3.1.1]heptan-3-yl)pyridin-3-yl)pyrazolo[1,5-a]pyridine-3-carbonitrile]",Assay (%) in comparison to the unstressed (time 0) sample,"[3]; 7 days, 40 °C, 11% RH",99.2%
same,Crystal Form (XRPD vs unstressed time 0 sample),"[3]; 7 days, 40 °C, 11% RH",NC
same,Impurities (%),"[3]; 7 days, 40 °C, 11% RH",0.10%
same,Assay (%) in comparison to the unstressed (time 0) sample,"[3]; 7 days, 40 °C, 75% RH",99.4%
same,Crystal Form (XRPD vs unstressed time 0 sample),"[3]; 7 days, 40 °C, 75% RH",NC
same,Impurities (%),"[3]; 7 days, 40 °C, 75% RH",0.11%
same,Assay (%) in comparison to the unstressed (time 0) sample,"[3]; 7 days, 50 °C, 30% RH",99.4%
same,Crystal Form (XRPD vs unstressed time 0 sample),"[3]; 7 days, 50 °C, 30% RH",NC
same,Impurities (%),"[3]; 7 days, 50 °C, 30% RH",0.09%
same,Assay (%) in comparison to the unstressed (time 0) sample,"[3]; 7 days, 50 °C, 50% RH",99.2%
same,Crystal Form (XRPD vs unstressed time 0 sample),"[3]; 7 days, 50 °C, 50% RH",NC
same,Impurities (%),"[3]; 7 days, 50 °C, 50% RH",0.10%
same,Assay (%) in comparison to the unstressed (time 0) sample,"[3]; 7 days, 70 °C, 11% RH",100.7%
same,Crystal Form (XRPD vs unstressed time 0 sample),"[3]; 7 days, 70 °C, 11% RH",NC
same,Impurities (%),"[3]; 7 days, 70 °C, 11% RH",0.09%
same,Assay (%) in comparison to the unstressed (time 0) sample,"[3]; 7 days, 70 °C, 75% RH",100.3%
same,Crystal Form (XRPD vs unstressed time 0 sample),"[3]; 7 days, 70 °C, 75% RH",NC
same,Impurities (%),"[3]; 7 days, 70 °C, 75% RH",0.10%
same,Assay (%) in comparison to the unstressed (time 0) sample,"[3]; 14 days, 40 °C, 11% RH",99.9%
same,Crystal Form (XRPD vs unstressed time 0 sample),"[3]; 14 days, 40 °C, 11% RH",NC
same,Impurities (%),"[3]; 14 days, 40 °C, 11% RH",0.09%
same,Assay (%) in comparison to the unstressed (time 0) sample,"[3]; 14 days, 40 °C, 75% RH",99.9%
same,Crystal Form (XRPD vs unstressed time 0 sample),"[3]; 14 days, 40 °C, 75% RH",NC
same,Impurities (%),"[3]; 14 days, 40 °C, 75% RH",0.10%
same,Assay (%) in comparison to the unstressed (time 0) sample,"[3]; 14 days, 50 °C, 30% RH",100.5%
same,Crystal Form (XRPD vs unstressed time 0 sample),"[3]; 14 days, 50 °C, 30% RH",NC
same,Impurities (%),"[3]; 14 days, 50 °C, 30% RH",0.09%
same,Assay (%) in comparison to the unstressed (time 0) sample,"[3]; 14 days, 50 °C, 50% RH",100.4%
same,Crystal Form (XRPD vs unstressed time 0 sample),"[3]; 14 days, 50 °C, 50% RH",NC
same,Impurities (%),"[3]; 14 days, 50 °C, 50% RH",0.11%
same,Assay (%) in comparison to the unstressed (time 0) sample,"[3]; 14 days, 70 °C, 11% RH",99.3%
same,Crystal Form (XRPD vs unstressed time 0 sample),"[3]; 14 days, 70 °C, 11% RH",NC
same,Impurities (%),"[3]; 14 days, 70 °C, 11% RH",0.10%
same,Assay (%) in comparison to the unstressed (time 0) sample,"[3]; 14 days, 70 °C, 75% RH",100.9%
same,Crystal Form (XRPD vs unstressed time 0 sample),"[3]; 14 days, 70 °C, 75% RH",NC
same,Impurities (%),"[3]; 14 days, 70 °C, 75% RH",0.11%
same,stability under the testing conditions,"[3]; accelerated stability study, conditions of Table 4",chemically and physically stable
same,Impurities (%),"[3]; time point 0 days, unstressed sample",0.09%
same,Equilibrium pH,"[4]; 0.01N HCl, 37° C., 24-hour equilibration",3.634
same,Equilibrium pH,"[4]; 0.01 N NaOH, 37° C., 24-hour equilibration",9.985
same,Equilibrium pH,"[4]; 0.1N HCl, 21.5° C. (ambient)",1.297
same,Equilibrium pH,"[4]; FaSSIF, 37° C., 24-hour equilibration",6.445
same,Equilibrium pH,"[4]; FeSSIF, 37° C., 24-hour equilibration",4.928
same,Equilibrium pH,"[4]; SGF (simulated gastric fluid), 37° C., 24-hour equilibration",2.644
same,Equilibrium pH,"[4]; Water, 37° C., 24-hour equilibration",7.146
same,solubility at 24 h,"[4]; aqueous buffer, thermodynamic from solid, 0.01 N NaOH, 37° C., 24-hour equilibration",1.1 µg/mL
same,solubility,"[4]; aqueous media, 37 °C, thermodynamic from solid, indicated by the aqueous solubility results, read-out: intrinsic solubility",~1 µg/mL
same,solubility at 24 h,"[4]; citrate/phosphate buffer pH 4.0, aqueous buffer, thermodynamic from solid, pH 4.0 Citrate/Phosphate, 37° C., 24-hour equilibration",712 µg/mL
same,solubility at 24 h,"[4]; pH 1.297, simulated gastric fluid, thermodynamic from solid, 0.1N HCl, measured at 21.5° C. (ambient), 24-hour equilibration",≥ 10000 µg/mL
same,solubility at 24 h,"[4]; pH 2.644, thermodynamic from solid, SGF (simulated gastric fluid), 37° C., 24-hour equilibration, retained solids non-crystalline by XRPD",1440 µg/mL
same,solubility at 24 h,"[4]; pH 3.634, simulated gastric fluid, thermodynamic from solid, 0.01N HCl, 37° C., 24-hour equilibration",4770 µg/mL
same,Equilibrium pH,"[4]; pH 4.0 Citrate/Phosphate, 37° C., 24-hour equilibration",4.134
same,Equilibrium pH,"[4]; pH 4.5 Acetate (USP), 37° C., 24-hour equilibration",4.496
same,solubility at 24 h,"[4]; pH 4.5 acetate buffer (USP), aqueous buffer, thermodynamic from solid, pH 4.5 Acetate (USP), 37° C., 24-hour equilibration",169 µg/mL
same,Equilibrium pH,"[4]; pH 6.0 Phosphate (USP), 37° C., 24-hour equilibration",6.027
same,solubility at 24 h,"[4]; pH 6.0 phosphate buffer (USP), aqueous buffer, thermodynamic from solid, pH 6.0 Phosphate (USP), 37° C., 24-hour equilibration",8.6 µg/mL
same,solubility at 24 h,"[4]; pH 7.146, thermodynamic from solid, Water, 37° C., 24-hour equilibration",3.6 µg/mL
same,Equilibrium pH,"[4]; pH 7.5 Phosphate (USP), 37° C., 24-hour equilibration",7.526
same,solubility at 24 h,"[4]; pH 7.5 phosphate buffer (USP), aqueous buffer, thermodynamic from solid, pH 7.5 Phosphate (USP), 37° C., 24-hour equilibration",2.2 µg/mL
same,solubility at 24 h,"[4]; thermodynamic from solid, FaSSIF (fasted-state simulated intestinal fluid, pH 6.5), 37° C., 24-hour equilibration",9.6 µg/mL
same,solubility at 24 h,"[4]; thermodynamic from solid, FeSSIF (fed-state simulated intestinal fluid, pH 5.0), 37° C., 24-hour equilibration",228 µg/mL
same,solubility in anisole,[2],almost no solubility
